Source: patent publication US20020094998A1, “Methods and compositions for treatment of ocular neovascularization and neural injury” (priority 2000, published 2002)

Experiments:
CNV = conditions: FIG. 1B
Brown Norway rats = assay: Electroretinography (a-wave) after verteporfin PDT in rats treated i.p. with agent; assay type: in vivo, rat; conditions: for A Wave Amplitude PDT Eye: ERG 3-4 hours after PDT; for A Wave Amplitude PDT Eye / A Wave Amplitude Control Eye: N 4; for A Wave Amplitude % Control: PDT eye vs control eye, * p ≦ 0.05 vs vehicle; for A Wave Amplitude Control Eye: eye not treated with PDT; for loss in retinal function induced by PDT: rats, i.p. 1 hour before PDT, a-wave amplitudes
Description: Brown Norway rats weighing 200-400 grams were treated intraperitoneally (i.p.) with either brimonidine, AGN 199960, or the saline vehicle. One hour later, the rats were unilaterally treated with PDT and evaluated by electroretinography 3-4 hours later. There were 4 rats in each treatment group.
PDT was conducted as follows: Mydriasis was induced in one eye of each rat with a drop of 0.5% tropicamide. Rats were then anesthetized with isoflurane and placed on a platform in front of a slit lamp coupled to a Coherent diode laser for verteporfin PDT (689 nm). Verteporfin was injected intravenously at a dose of 6 mg/m^2. […] Three to four hours later, the treated animals were again dilated and anesthetized, then electroretinograms (ERGs) were evaluated in each eye.
ERGs are collected non-invasively by measuring mass-cell response arising due to retinal activity proceeding from a light stimulus. The first cells stimulated by a flash light stimulation are the photoreceptors at the outer retinal layer. This response is measured as an a-wave. As the signal is transduced to inner retinal neurons, a b-wave is produced. The a-wave reflects activity in the photoreceptors and the b-wave reflects activity in both photoreceptors and bipolar cells.
Before being subjected to the ERG test, the rats were placed in the dark (dark-adapted) for 15 minutes. Two types of ERG apparatus were used to generate the results below. In the initial brimonidine experiment, each eye was evaluated separately. A Grass photostimulator was placed 10 cm from the recording eye and flashed a single white flash lasting 10 microseconds. A gold corneal ring electrode with a reference electrode attached to the lower eyelid detected retinal responses. For the AGN 199960 experiments, a Ganzfeld dome was used to generate a single flash and sensitive bipolar corneal electrodes were placed on both eyes, thus allowing simultaneous ERGs to be done. A cushioning agent on the cornea (methylcellulose) was used in each case, and the responses were amplified and stored in a computer. The results reported are a-wave amplitudes, which appear to be the ERG parameter most affected in clinical PDT. […] has the following structure: [drawing 3]

[1] = system: wet age-related macular degeneration patient
Description: A patient presents with “wet” age-related macular degeneration (ARMD) in the foveal region of the right eye, and their condition is found to be suitable for photodynamic therapy (PDT). For one week prior to the date of scheduled treatment, the patient is given a topical dosage of brimonidine twice a day in a standard formulation.
The day of scheduled PDT treatment, the patient is administered 6 mg/M^2 of verteporfin. Fifteen minutes after the start of the infusion, the patient is administered Irradiance of 600 mW/cm^2 and total fluence of 50 Joules/cm^2 from an Argon light laser.
Brimonidine administration is continued every two days throughout the 12 week evaluation period.
Evaluation of neural health is assayed 1 week, 4 weeks, and 12 weeks following treatment by visual inspection of the retina and test of visual acuity.

retina = conditions: cited from earlier work

Row | Compound | area of ablation of CNV following PDT (CNV) | A Wave Amplitude PDT Eye (Brown Norway rats; 1000 ug/kg i.p. 1 hour prior to PDT, Grass photostimulator) | A Wave Amplitude % Control (Brown Norway rats; 1000 ug/kg i.p. 1 hour prior to PDT) | A Wave Amplitude Control Eye (Brown Norway rats; 1000 ug/kg i.p., Grass photostimulator) | post PDT decrease in retinal functionality (Brown Norway rats; FIG. 1A, compared to a saline control) | loss in retinal function induced by PDT (Brown Norway rats) | visual acuity ([1]; 4 and 12 weeks following treatment) | renewed neovascularization ([1]; 12 weeks following PDT treatment) | optic nerve axon loss ([1]; monitoring period up to 12 weeks) | Fluorescein angiography leakage in the treated tissue ([1]; one week after PDT and throughout the monitoring period) | visual inspection of the retina (whitening, edema) ([1]; topical twice a day one week before PDT, then every two days, 1 to 12 weeks after PDT) | effect of PDT on vascular outgrowth and associated edema (retina; about 6 mg/m^2, treatment necessary every few months) | retinal and optic nerve damage from PDT (retina; high doses (12 and 18 mg/m^2)) | A Wave Amplitude PDT Eye (Brown Norway rats; 300 ug/kg i.p. 1 hour prior to PDT, Ganzfeld dome) | A Wave Amplitude % Control (Brown Norway rats; 300 ug/kg i.p. 1 hour prior to PDT) | A Wave Amplitude Control Eye (Brown Norway rats; 300 ug/kg i.p., Ganzfeld dome)
1 | Brc1c(NC2=NCCN2)ccc2nccnc12 [Brimonidine] | does not affect | 90 ± 15 uV | 103 ± 8* % | 91 ± 21 uV | inhibits | inhibited | no discernable loss of vision | No evidence | no evidence | minimal leakage | healthy with no whitening |  |  |  |  | 
2 | verteporfin [vertporfin] |  |  |  |  |  |  |  |  |  |  |  | effective to slow vascular outgrowth and associated edema somewhat | long term or permanent scarring of the retina, chronic absence of photoreceptor cells, and optic nerve atrophy |  |  | 
3 | O=C1c2ccccc2CCC1Cc1c[nH]c(=S)[nH]1 (centres unmarked) [AGN 960] |  |  |  |  |  | inhibited |  |  |  |  |  |  |  | 212 ± 16 uV | 101 ± 13* % | 218 ± 29 uV
